Results: PubChem BioAssay AID1963867 (Molecular Pharmacology Branch, DTP, NCI, 2024)

Test system: KRAS-mutant PDC tumor spheroid with HUVEC/MSC, viability
Test: Anticancer human tumor 327498-153-R-J2-PDC patient-derived uterine carcinosarcoma cell line growth inhibition [KRAS2]
Details: for IC50: curve of first compound; for viability, T/C: stronger effect = lower value
Excerpt: Multicellular complex tumor spheroid response to RAS pathway inhibitors in combination with a targeted agents in patient-derived cell lines with oncogenic KRAS variants from multiple cancer types
A high-throughput screen of multi-cell type tumor spheroids was designed to identify active combinations of targeted small molecules and KRAS pathway inhibitors. Complex spheroids include a stromal component modeled by human endothelial cells (HUVEC) and fibroblasts modeled by human mesenchymal stem cells (MSCs). The concentration ranges selected for each drug and investigational agent were based upon clinically achievable concentrations if the clinical Cmax of the agent was known.
Compounds. The drugs and investigational agents: BI-3406 (NSC825286), BAY-293 (NSC824723), batoprotafib (TNO155; NSC825523), sotorasib (AMG 510; NSC818433), MRTX1257 (NSC819558), elimusertib (BAY 1895344; NSC800525), molibresib (GSK525762; NSC774829), temuterkib (LY3214996; NSC803410), venetoclax (NSC766270), alisertib (NSC759677), olaparib (NSC753686), talazoparib (NSC767125), erdafitinib (NSC781556), ipatasertib (NSC767898), cabozantinib (NSC761068), nintedanib (NSC756659), abemaciclib (NSC768073), docetaxel (NSC628503), trametinib (NSC758246), and sapanisertib (NSC764658) were obtained from the National Cancer Institute (NCI) Developmental Therapeutics Program Chemical Repository. The FDA-approved anticancer drug set is available from the Developmental Therapeutics Program. […] The stock solutions were prepared in dimethyl sulfoxide (DMSO, Sigma-Aldrich, St. Louis, MO, cat. D2650) at 800-fold the tested concentration and stored at -70 degrees C prior to their use. All drugs and investigational agents were tested over a range starting from a high concentration at or near the clinical Cmax and decreasing in half-log increments. If the clinical Cmax for an agent had not been determined, the highest concentration tested was 10 microM.
Cell Culture. All cells were maintained in an incubator at 37 degrees C and 5% CO2 with 95% humidity. The PDC lines were cultured according to standard operating procedures established by the NCI PDMR (https://pdmr.cancer.gov/sops/default.htm). Briefly, all PDCs were thawed and cultured in Matrigel-coated flasks prepared with a working solution of 1X Ham's F-12 nutrient mix, without supplementation (Invitrogen, Waltham, MA, cat. 11765054), 100 U/mL penicillin-streptomycin (Invitrogen, cat. 15140122), and 2.5% Matrigel (Corning Inc., Corning, NY, cat. 354248) for the first three passages. All PDCs were cultured in complete DMEM/F-12 media containing advanced DMEM/F-12 (Invitrogen, cat. 12634028), 4.9% defined fetal bovine serum, heat inactivated (HyClone Laboratories Inc., Logan, UT, cat. SH30070.03HI), 389 ng/mL hydrocortisone (Sigma-Aldrich, cat. H4001), 9.7 ng/mL human EGF recombinant protein (Invitrogen, cat. PHG0313), 23.4 microg/mL adenine (Sigma-Aldrich, cat. A2786), 97.3 U/mL penicillin-streptomycin (Invitrogen, cat. 15140122), 1.9 mM L-glutamine (Invitrogen, cat. 25030081), and 9.7 microM Y-27632 dihydrochloride (Tocris Bioscience, Bristol, United Kingdom, cat. 1254). The PDCs were cultured in complete DMEM/F12 media without 9.7 microM Y-27632 dihydrochloride for at least two passages prior to the screen. The established cell line HOP-62 was cultured in RPMI 1640 medium, HEPES (Invitrogen, cat. 22400105) with 10% defined fetal bovine serum (HyClone Laboratories Inc., cat. SH30070.03) and 2 mM L-glutamine (Invitrogen, cat. 25030081). The pooled donor HUVEC were cultured in endothelial cell growth medium 2 (PromoCell, Heidelberg, Germany, cat. C-22011) and the hMSC were cultured in mesenchymal stem cell growth medium 2 (PromoCell, cat. C-28009). For all experiments, HUVEC and hMSC were used at passages </=5, while the malignant cell lines were used at passages </=15. […]

[1] = second compound 0.1 µM, first compound 0.0316 µM
[2] = second compound 0.316 µM, first compound 0.0316 µM
[3] = second compound 1 µM, first compound 0.0316 µM
[4] = second compound 3.16 µM, first compound 0.0316 µM
[5] = second compound 10 µM, first compound 0.0316 µM
[6] = second compound 0.1 µM, first compound 0.1 µM
[7] = second compound 0.1 µM, first compound 0.316 µM
[8] = second compound 0.1 µM, first compound 1 µM
[9] = second compound 0.1 µM, first compound 3.16 µM
[10] = second compound 0.1 µM, first compound 10 µM
[11] = second compound 0.316 µM, first compound 0.1 µM
[12] = second compound 0.316 µM, first compound 0.316 µM
[13] = second compound 0.316 µM, first compound 1 µM
[14] = second compound 0.316 µM, first compound 3.16 µM
[15] = second compound 0.316 µM, first compound 10 µM
[16] = second compound 1 µM, first compound 0.1 µM
[17] = second compound 1 µM, first compound 0.316 µM
[18] = second compound 1 µM, first compound 1 µM
[19] = second compound 1 µM, first compound 3.16 µM
[20] = second compound 1 µM, first compound 10 µM
[21] = second compound 3.16 µM, first compound 0.1 µM
[22] = second compound 3.16 µM, first compound 0.316 µM
[23] = second compound 3.16 µM, first compound 1 µM
[24] = second compound 3.16 µM, first compound 3.16 µM
[25] = second compound 3.16 µM, first compound 10 µM
[26] = second compound 10 µM, first compound 0.1 µM
[27] = second compound 10 µM, first compound 0.316 µM
[28] = second compound 10 µM, first compound 1 µM
[29] = second compound 10 µM, first compound 3.16 µM
[30] = second compound 10 µM, first compound 10 µM
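Further: spheroids exposed to agents for seven days before reading.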
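Wherever viability, T/C is given: 100% = DMSO vehicle wells so lower means fewer viable cells.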

`CC(=O)Nc1cccc(-n2c(=O)n(C3CC3)c(=O)c3c(Nc4ccc(I)cc4F)n(C)c(=O)c(C)c32)c1` + C=CC(=O)N1CCN(c2nc(=O)n(-c3c(C)ccnc3C(C)C)c3nc(-c4c(O)cccc4F)c(F)cc23)C(C)C1 gave an IC50 (second compound 0.1 µM) of 6.05 nM, an IC50 (second compound 0.316 µM) of 3.57 nM and an IC50 (second compound 1 µM) of 4.92 nM. For the same molecule, the IC50 (second compound 3.16 µM) was 2.38 nM, the IC50 (second compound 10 µM) was less than 0.1 nM and the viability, T/C (second compound 0.1 µM, first compound 0.0001 µM) was 70.5%. For the same molecule, the viability, T/C (second compound 0.1 µM, first compound 0.000316 µM) was 60.1%, the viability, T/C (second compound 0.1 µM, first compound 0.001 µM) was 61.5% and the viability, T/C (second compound 0.1 µM, first compound 0.00316 µM) was 57.9%. For the same molecule, the viability, T/C (second compound 0.1 µM, first compound 0.01 µM) was 45.2%, the viability, T/C [1] was 16.2% and the viability, T/C (second compound 0.316 µM, first compound 0.0001 µM) was 65.7%. The viability, T/C (second compound 0.316 µM, first compound 0.000316 µM) was 67.2%, the viability, T/C (second compound 0.316 µM, first compound 0.001 µM) was 57.6% and the viability, T/C (second compound 0.316 µM, first compound 0.00316 µM) was 51.5%. The viability, T/C (second compound 0.316 µM, first compound 0.01 µM) was 37.7%, the viability, T/C [2] was 14.5% and the viability, T/C (second compound 1 µM, first compound 0.0001 µM) was 60%. It also gave a viability, T/C (second compound 1 µM, first compound 0.000316 µM) of 63%, a viability, T/C (second compound 1 µM, first compound 0.001 µM) of 56.3% and a viability, T/C (second compound 1 µM, first compound 0.00316 µM) of 53.1%. The viability, T/C (second compound 1 µM, first compound 0.01 µM) was 44.4%, the viability, T/C [3] was 13.3% and the viability, T/C (second compound 3.16 µM, first compound 0.0001 µM) was 60.7%. For the same molecule, the viability, T/C (second compound 3.16 µM, first compound 0.000316 µM) was 57.2%, the viability, T/C (second compound 3.16 µM, first compound 0.001 µM) was 54.5% and the viability, T/C (second compound 3.16 µM, first compound 0.00316 µM) was 49.4%. It also gave a viability, T/C (second compound 3.16 µM, first compound 0.01 µM) of 31.9%, a viability, T/C [4] of 15.3% and a viability, T/C (second compound 10 µM, first compound 0.0001 µM) of 46.5%. It also gave a viability, T/C (second compound 10 µM, first compound 0.000316 µM) of 47.7%, a viability, T/C (second compound 10 µM, first compound 0.001 µM) of 45.1% and a viability, T/C (second compound 10 µM, first compound 0.00316 µM) of 41.2%. The viability, T/C (second compound 10 µM, first compound 0.01 µM) was 24.1% and the viability, T/C [5] was 13.4%.

With `COC(=O)c1ccc2c(C(=Nc3ccc(N(C)C(=O)CN4CCN(C)CC4)cc3)c3ccccc3)c(O)[nH]c2c1` + C=CC(=O)N1CCN(c2nc(=O)n(-c3c(C)ccnc3C(C)C)c3nc(-c4c(O)cccc4F)c(F)cc23)C(C)C1 the IC50 (second compound 0.1 µM) was 68.6 nM, the IC50 (second compound 0.316 µM) was less than 31.6 nM and the IC50 (second compound 1 µM) was less than 31.6 nM. The IC50 (second compound 3.16 µM) was less than 31.6 nM, the IC50 (second compound 10 µM) was less than 31.6 nM and the viability, T/C [1] was 55.6%. The viability, T/C [6] was 47%, the viability, T/C [7] was 33.8% and the viability, T/C [8] was 21.5%. It also gave a viability, T/C [9] of 8.48%, a viability, T/C [10] of 8.12% and a viability, T/C [2] of 48.5%. The viability, T/C [11] was 46.1%, the viability, T/C [12] was 31.3% and the viability, T/C [13] was 12.5%. For the same molecule, the viability, T/C [14] was 6.86%, the viability, T/C [15] was 4.83% and the viability, T/C [3] was 46%. For the same molecule, the viability, T/C [16] was 44.4%, the viability, T/C [17] was 27.5% and the viability, T/C [18] was 16.6%. The viability, T/C [19] was 7.4%, the viability, T/C [20] was 3.38% and the viability, T/C [4] was 42.4%. It also gave a viability, T/C [21] of 35%, a viability, T/C [22] of 19.1% and a viability, T/C [23] of 11.5%. The viability, T/C [24] was 6.26%, the viability, T/C [25] was 4.47% and the viability, T/C [5] was 39%. It also gave a viability, T/C [26] of 31.1%, a viability, T/C [27] of 22.9% and a viability, T/C [28] of 13.2%. For the same molecule, the viability, T/C [29] was 3.4% and the viability, T/C [30] was 1.04%.

Work on `COc1cc(Nc2ncc3c(n2)-c2ccc(Cl)cc2C(c2c(F)cccc2OC)=NC3)ccc1C(=O)O` + C=CC(=O)N1CCN(c2nc(=O)n(-c3c(C)ccnc3C(C)C)c3nc(-c4c(O)cccc4F)c(F)cc23)C(C)C1 yielded an IC50 (second compound 0.1 µM) of less than 31.6 nM, an IC50 (second compound 0.316 µM) of less than 31.6 nM and an IC50 (second compound 1 µM) of less than 31.6 nM. The IC50 (second compound 3.16 µM) was less than 31.6 nM, the IC50 (second compound 10 µM) was less than 31.6 nM and the viability, T/C [1] was 12.1%. The viability, T/C [6] was 9.76%, the viability, T/C [7] was 10.6% and the viability, T/C [8] was 12.4%. The viability, T/C [9] was 12.6%, the viability, T/C [10] was 9.6% and the viability, T/C [2] was 10.1%. The viability, T/C [11] was 11.5%, the viability, T/C [12] was 11.1% and the viability, T/C [13] was 9.91%. For the same molecule, the viability, T/C [14] was 13.6%, the viability, T/C [15] was 10.8% and the viability, T/C [3] was 10.6%. The viability, T/C [16] was 12%, the viability, T/C [17] was 10.6% and the viability, T/C [18] was 10.7%. It also gave a viability, T/C [19] of 12.5%, a viability, T/C [20] of 11.3% and a viability, T/C [4] of 9.6%. For the same molecule, the viability, T/C [21] was 11.2%, the viability, T/C [22] was 10.2% and the viability, T/C [23] was 11.9%. The viability, T/C [24] was 12.6%, the viability, T/C [25] was 10.9% and the viability, T/C [5] was 9.5%. It also gave a viability, T/C [26] of 13.1%, a viability, T/C [27] of 12.6% and a viability, T/C [28] of 12.4%. It also gave a viability, T/C [29] of 15.2% and a viability, T/C [30] of 11.9%.
